The target in test [1] is T1, soybean 15-LOX (Glycine max, UniProt P08170).
T1 construct: purchased
T1 sequence (P08170 1-839): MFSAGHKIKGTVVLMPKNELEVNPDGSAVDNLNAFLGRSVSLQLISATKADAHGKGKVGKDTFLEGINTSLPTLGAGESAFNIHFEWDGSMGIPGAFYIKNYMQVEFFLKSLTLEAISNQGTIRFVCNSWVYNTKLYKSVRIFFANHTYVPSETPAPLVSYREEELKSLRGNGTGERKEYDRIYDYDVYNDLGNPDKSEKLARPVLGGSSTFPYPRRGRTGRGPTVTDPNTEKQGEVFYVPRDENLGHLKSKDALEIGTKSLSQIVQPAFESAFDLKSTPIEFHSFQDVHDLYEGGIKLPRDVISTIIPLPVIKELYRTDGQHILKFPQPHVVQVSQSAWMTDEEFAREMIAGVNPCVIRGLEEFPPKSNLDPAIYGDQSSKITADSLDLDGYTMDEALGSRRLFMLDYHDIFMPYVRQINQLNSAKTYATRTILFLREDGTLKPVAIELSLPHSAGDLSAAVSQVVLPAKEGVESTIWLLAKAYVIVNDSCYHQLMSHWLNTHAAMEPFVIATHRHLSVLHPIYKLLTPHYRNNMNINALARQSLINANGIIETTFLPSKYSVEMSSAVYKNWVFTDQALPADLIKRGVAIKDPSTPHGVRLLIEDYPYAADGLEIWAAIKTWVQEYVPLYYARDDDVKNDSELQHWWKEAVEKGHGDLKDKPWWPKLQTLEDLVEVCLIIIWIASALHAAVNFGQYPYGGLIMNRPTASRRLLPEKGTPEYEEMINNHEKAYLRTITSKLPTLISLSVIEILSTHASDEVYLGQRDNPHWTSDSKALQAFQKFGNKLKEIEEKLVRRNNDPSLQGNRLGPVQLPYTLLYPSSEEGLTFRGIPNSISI
Briefly: In vitro soybean 15-lipoxygenase inhibition assay (spectrophotometric, linoleic acid substrate). The class given is biochemical. As to conditions: for inhibition at 100 µg/mL: read-out: % Inhibition (100 μg/mL). The method, then:
The target compounds (3a, 3c, 3e–g), intermediates (2a, 2c–g) and the starting material (1) were preliminary evaluated in vitro for their ability to inhibit soybean 15-LOX activity by using spectrophotometric method. Bioactivity screening for soybean 15-LOX inhibition by the target compounds was carried out at 100 μg/mL concentration. […] The bioactivities of the compounds were also compared to tHGA as the parent compound.
In vitro soybean 15-LOX inhibiting activity was measured using spectrophotometric method. In brief, sodium phosphate buffer (160 μL, 100 mM, pH 8.0), test sample (10 μL) and soybean 15-LOX (1.13.11.12) type I-B solution (20 μL, 320 U/well) were mixed and incubated for 15 min at 25 °C. The reaction was then initiated by the addition of the substrate in the form of linoleic acid (10 μL, 0.6 mM) solution. The enzymatic conversion of linoleic acid to form (9Z,11E)-(13S))-13-hydroperoxyoctadeca-9,11-dienoate end product was followed by the change of absorbance measured at 234 nm over a period for 6 min. Test samples and reference standards were dissolved in DMSO. Stock solutions were prepared at concentration 100 μg/mL for pure compounds. […] All reactions were performed in triplicate in a 96-well microtitre plate. The IC50 was calculated from the non-linear regression fitting curve of GraphPad Prism 5. The percentage of inhibition (%) can be calculated from the following formula [17]: [drawing 1] (1)

The subject of another test is 5-LOX. The following applies: cited from earlier work.
Test [2] has as its system activated macrophage cells. Also noted: method as in PMID 16644538. The following applies: cited from earlier work.
For test [3], the system named is airway hyperresponsiveness to methacholine challenge. On the set-up: method as in PMID 21958738, PMID 22266348. As to conditions: compared with Zileuton; cited from earlier work.
Test [4] deals with T1, soybean 15-LOX. On the set-up: method as in PMID 16644538. As to conditions: initial finding; read-out: IC50 against soybean 15-LOX (earlier studies); cited from earlier work.
Setting [5] is: soybean 15-LOX, read-out: IC50 Value (μM) Mean ± SEM.
The mark [6] stands for this setting: isolated from Hypericum empetrifolium, read-out: IC50 against 5-LOX.
The mark [7] stands for this setting: rounded values printed in Figure 1, read-out: 15-LOX IC50 (Figure 1).

Where two headings read alike, the source gives them in different places. Where only a bound is given, the exact number is not on record here.

Consider `CCC(=O)c1c(O)cc(O)cc1O` [2c, 1-(2,4,6-Trihydroxyphenyl)propan-1-one], for which the “% Inhibition (100 μg/mL)” value at soybean 15-LOX [1] (100 μg/mL, mean ± SEM) was “did not exhibit any anti-inflammatory activity”. Moreover, the IC50 on soybean 15-LOX [1] (setting [5]) was greater than 100 µM.

For `CCCCC(=O)c1c(O)cc(O)c(C/C=C(\C)CCC=C(C)C)c1O` [3e, (E)-1-(3-(3,7-Dimethylocta-2,6-dienyl)-2,4,6-trihydroxyphenyl)pentan-1-one], the inhibition at 100 µg/mL at soybean 15-LOX [1] (100 μg/mL, mean ± SEM) came out at 90.3 ± 4.4%. At soybean 15-LOX [1] (setting [5]), the half-maximal inhibitory concentration (IC50) was determined as 10.3 ± 1.5 µM.

Turning to `CC(C)(C)C(=O)c1c(O)cc(O)cc1O` [2d, 2,2-Dimethyl-1-(2,4,6-trihydroxyphenyl)propane-1-one], the inhibition at 100 µg/mL at soybean 15-LOX [1] (100 μg/mL, mean ± SEM) worked out at 16.9 ± 1.9%. In addition, at soybean 15-LOX [1] (setting [5]), the IC50 was greater than 100 µM.

For the compound `Oc1cc(O)cc(O)c1` [compound 1, phloroglucinol], on soybean 15-LOX [1] (100 μg/mL, mean ± SEM), the inhibition at 100 µg/mL worked out at 23.2 ± 2.2%. Also, at soybean 15-LOX [1] (setting [5]), the half-inhibitory concentration (IC50) is greater than 100 µM.

For the compound `CC(C)C(=O)c1c(O)cc(O)cc1O` [2a, 2-Methyl-1-(2,4,6-trihydroxyphenyl)propan-1-one], at soybean 15-LOX [1] (100 μg/mL, mean ± SEM), the inhibition at 100 µg/mL was determined as 19.4 ± 5%. Moreover, on soybean 15-LOX [1] (setting [5]), the IC50 was greater than 100 µM.

As for “3-geranyl-1-(2'-methylbutanoyl)phloroglucinol [compound 4]”, the IC50 in the test with 5-LOX (setting [6]) was 5800 nM.

With `CC(C)=CCC/C(C)=C/Cc1c(O)cc(O)c(C(=O)/C=C/c2ccccc2)c1O` [3g, (E)-1-(3-((E)-3,7-Dimethylocta-2,6-dienyl)-2,4,6-trihydroxyphenyl)-3-phenylprop-2-en-1-one], the inhibition at 100 µg/mL on soybean 15-LOX [1] (100 μg/mL, mean ± SEM) was determined as 90.8 ± 7.6%. The IC50 at soybean 15-LOX [1] (setting [5]) turned out to be 15.2 ± 1.2 µM.

Regarding `O=C(c1c(O)cc(O)cc1O)C1CCCCC1` [2f, Cyclohexyl(2,4,6-trihydroxyphenyl)methanone], the inhibition at 100 µg/mL on soybean 15-LOX [1] (100 μg/mL, mean ± SEM) is 17.5 ± 3%. Besides, the IC50 at soybean 15-LOX [1] (setting [5]) was greater than 100 µM.

Take `CC(C)=CCC/C(C)=C/Cc1c(O)cc(O)c(C(=O)C2CCCCC2)c1O` [3f, (E)-Cyclohexyl (3-(3,7-dimethylocta-2,6-dienyl)-2,4,6-trihydroxyphenyl)-methanone]: at soybean 15-LOX [1] (100 μg/mL, mean ± SEM), the inhibition at 100 µg/mL worked out at 88.8 ± 5.9%. The IC50 at soybean 15-LOX [1] (setting [5]) worked out at 26.3 ± 1.3 µM.

For the compound `CCCCC(=O)c1c(O)cc(O)cc1O` [2e, 1-(2,4,6-Trihydroxyphenyl)pentan-1-one], on soybean 15-LOX [1], the IC50 is greater than 100 µM and the inhibition at 100 µg/mL is 24.5 ± 3.2%.

For `O=C(/C=C/c1ccccc1)c1c(O)cc(O)cc1O` [2g, (E)-3-Phenyl-1-(2,4,6-trihydroxyphenyl)prop-2-en-1-one], the “% Inhibition (100 μg/mL)” value at soybean 15-LOX [1] (100 μg/mL, mean ± SEM) is “did not exhibit any anti-inflammatory activity”. In addition, the IC50 on soybean 15-LOX [1] (setting [5]) was greater than 100 µM.

Regarding `CCC(=O)c1c(O)cc(O)c(C/C=C(\C)CCC=C(C)C)c1O` [3c, (E)-1-(3-(3,7-Dimethylocta-2,6-dienyl)-2,4,6-trihydroxyphenyl)propan-1-one], the inhibition at 100 µg/mL on soybean 15-LOX [1] (100 μg/mL, mean ± SEM) was 94.4 ± 3%. Besides, the IC50 on soybean 15-LOX [1] (setting [5]) is 12.3 ± 0.6 µM.

With `CC(C)=CCC/C(C)=C/Cc1c(O)cc(O)c(C(=O)C(C)C)c1O` [3a, 3-Geranyl-1-(2'-methylpropanoyl)phloroglucinol], the IC50 in the test with 5-LOX (setting [6]) is 2200 nM; at soybean 15-LOX [1] (setting [7]), 27 µM; at soybean 15-LOX [1] (setting [5]), 27.6 ± 3.6 µM. On soybean 15-LOX [1] (100 μg/mL, mean ± SEM), the inhibition at 100 µg/mL is 90.3 ± 4.1%.

With `CC(=O)c1c(O)cc(O)c(C/C=C(\C)CCC=C(C)C)c1O` [tHGA, 2,4,6-trihydroxy-3-geranylacetophenone], the “inhibition of cysteinyl leukotriene secretion” value in test [2] is given as “dose-dependent inhibition”. For the same compound, the “efficacy in acute murine asthma model (airway hyperresponsiveness, cellular infiltration, cytokines, cysLT, IgE)” value in test [3] is recorded as “as effective as Zileuton”. Besides, the IC50 in the test with 5-LOX (Figure 1, read-out: 5-LOX IC50) was 420 nM; on soybean 15-LOX [4] it was 20 µM; on soybean 15-LOX [1] (setting [7]), 23 µM; on soybean 15-LOX [1] (setting [5]), 23.6 ± 1.7 µM. Further, the inhibition at 100 µg/mL on soybean 15-LOX [1] (100 μg/mL, mean ± SEM) turned out to be 94.3 ± 3.4%.

One may read the IC50 as the concentration that inhibits the measured activity by half.

(Values after article PMC6271415, “Synthesis and Docking Studies of 2,4,6-Trihydroxy-3-Geranylacetophenone Analogs as Potential Lipoxygenase Inhibitor” (Molecules, 2014).)
